Test results as given in patent US8883963B2 (Cadila Healthcare Limited, priority 2007, dated 2014).
Starred links: 1 amine or outer side, 2 acyl side, 3 side chain; linkers in the order of their positions; H or OH if unused. Non-standard residues stand in square brackets, D forms with d. Residues, ends and D or L forms follow the SMILES beside them. ξ: configuration not given here. ξBip(2'-Et-4'-OMe) = CCc1cc(OC)ccc1-c1ccc(CC(N)C(=O)O)cc1; X1 = O=C(C(CCCc1ccc(C(F)(F)F)cc1F)N[*:1])[*:2]

What was measured:
[1] = system: RIN5F (Rat Insulinoma) cells; test: In vitro glucose-dependent insulin secretion (RIN5F cell assay screening protocol); format: cell-based; settings: 16.7 mM glucose load
[2] = molecular target: T1, human glucagon receptor (Homo sapiens, UniProt P47871); test: In vitro human glucagon antagonist activity (inhibition of cAMP production) in CHO/human glucagon R cells; format: cell-based; settings: with saturated concentration of glucagon peptide
T1 construct: The full-length cDNA was cloned in pcDNA3.1 (Invitrogen); expressed in transfected cells
T1 sequence (P47871 26-477): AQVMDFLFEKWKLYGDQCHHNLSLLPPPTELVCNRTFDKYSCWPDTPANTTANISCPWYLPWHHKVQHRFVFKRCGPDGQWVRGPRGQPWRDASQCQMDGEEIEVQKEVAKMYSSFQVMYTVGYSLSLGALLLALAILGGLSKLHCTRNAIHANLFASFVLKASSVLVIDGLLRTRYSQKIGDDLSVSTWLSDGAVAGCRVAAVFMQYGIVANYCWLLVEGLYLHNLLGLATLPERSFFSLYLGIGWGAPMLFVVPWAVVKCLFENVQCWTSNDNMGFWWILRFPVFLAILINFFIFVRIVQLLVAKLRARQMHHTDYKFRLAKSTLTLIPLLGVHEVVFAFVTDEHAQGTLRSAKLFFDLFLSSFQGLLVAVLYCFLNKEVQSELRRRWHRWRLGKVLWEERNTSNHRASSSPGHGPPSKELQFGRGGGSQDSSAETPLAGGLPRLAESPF

[3] = molecular target: DPP IV (Homo sapiens, UniProt P27487); test: Stability against DPP IV enzyme; format: in vitro ADME; settings: 37° C.; for % degradation of peptidomimetics in 24 h when incubated with DPP-IV enzyme: 2 μM peptidomimetic; for half-life at 2 μM: DPP IV enzyme, pH 7.8, 2 μM peptidomimetic, read-out: half-life (t1/2) when incubated with DPP-IV enzyme
Chain of DPP IV (P27487 whole entry, species assumed): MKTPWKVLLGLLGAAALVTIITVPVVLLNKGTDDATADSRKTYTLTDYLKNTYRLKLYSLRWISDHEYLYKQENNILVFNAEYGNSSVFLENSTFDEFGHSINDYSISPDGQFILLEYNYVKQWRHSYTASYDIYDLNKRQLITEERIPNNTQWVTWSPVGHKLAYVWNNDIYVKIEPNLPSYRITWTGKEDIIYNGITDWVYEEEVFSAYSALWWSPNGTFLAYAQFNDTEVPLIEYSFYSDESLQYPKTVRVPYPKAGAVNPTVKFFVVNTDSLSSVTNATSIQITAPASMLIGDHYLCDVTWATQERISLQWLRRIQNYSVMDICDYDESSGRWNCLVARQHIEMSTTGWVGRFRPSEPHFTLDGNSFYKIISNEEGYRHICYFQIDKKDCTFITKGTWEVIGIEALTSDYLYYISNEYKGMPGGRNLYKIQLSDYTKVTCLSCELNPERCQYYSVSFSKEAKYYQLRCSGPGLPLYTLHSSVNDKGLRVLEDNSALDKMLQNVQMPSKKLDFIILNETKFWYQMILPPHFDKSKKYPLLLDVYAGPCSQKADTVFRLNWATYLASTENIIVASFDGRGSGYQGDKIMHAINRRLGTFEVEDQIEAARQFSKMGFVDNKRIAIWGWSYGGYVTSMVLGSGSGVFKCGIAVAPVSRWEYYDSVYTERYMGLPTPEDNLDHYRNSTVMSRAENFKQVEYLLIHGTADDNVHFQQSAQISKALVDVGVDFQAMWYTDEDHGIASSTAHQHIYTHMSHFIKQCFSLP
Protocol: (§1) Reactions were terminated by the addition of TFA/H2O (15 mL, 10% (v/v)). […] The column was equilibrated with TFA/H20, at a flow rate of 1 mL/min.

[4] = Stability in human plasma; format: in vitro ADME; settings: 2 μM peptidomimetic, pooled human plasma, 37° C.; for half-life at 2 μM: pH 7.8, read-out: half-life (t1/2) when incubated with human plasma
Protocol: as §1

[5] = Stability in simulated gastric fluid; format: in vitro ADME; settings: 2 μM peptidomimetic, simulated gastric fluid pH 1.5, 37° C.
Protocol: as §1

[6] = Stability in simulated intestinal fluid; format: in vitro ADME; settings: 2 μM peptidomimetic, simulated intestinal fluid pH 7.5, 37° C.
Protocol: as §1

[7] = Stability in liver microsomes; format: in vitro ADME; settings: 2 μM peptidomimetic, human liver microsomes, 37° C.; for half-life at 2 μM: pH 7.8, read-out: half-life (t1/2) when incubated with liver microsomes
Protocol: as §1

[8] = molecular target: T2, Human GLP-1 receptor (Homo sapiens, UniProt P43220); test: In vitro Human GLP-1 R agonist activity (cyclic AMP determination) in CHO/human GLP1R cells; format: cell-based
T2 construct: The full-length cDNA was cloned in pcDNA3.1(+); expressed in transfected cells
T2 sequence (P43220 24-463): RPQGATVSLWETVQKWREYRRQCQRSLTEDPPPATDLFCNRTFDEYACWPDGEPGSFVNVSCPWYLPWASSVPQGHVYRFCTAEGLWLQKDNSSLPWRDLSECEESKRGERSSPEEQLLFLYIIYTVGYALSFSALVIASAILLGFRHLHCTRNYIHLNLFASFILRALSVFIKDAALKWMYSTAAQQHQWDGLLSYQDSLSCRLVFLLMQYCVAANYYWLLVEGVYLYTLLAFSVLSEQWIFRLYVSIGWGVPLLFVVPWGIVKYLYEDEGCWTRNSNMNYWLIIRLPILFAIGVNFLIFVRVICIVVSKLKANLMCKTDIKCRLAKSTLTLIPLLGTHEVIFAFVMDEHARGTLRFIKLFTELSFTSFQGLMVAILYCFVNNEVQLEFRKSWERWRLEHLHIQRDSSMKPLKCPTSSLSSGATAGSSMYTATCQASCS

Row | SMILES | Insulin secretion ([1]; 0.1 nM test compd.) [pg/µg/h] | Insulin secretion ([1]; 1 nM test compd.) [pg/µg/h] | Insulin secretion ([1]; 10 nM test compd.) [pg/µg/h] | Human Glucagon receptor antagonistic activity shown as inhibition of cAMP production of Glucagon peptide ([2]; 1 nM test compound) [pmol/ml/μg prt] | Human Glucagon receptor antagonistic activity shown as inhibition of cAMP production of Glucagon peptide ([2]; 10 nM test compound) [pmol/ml/μg prt] | Human Glucagon receptor antagonistic activity shown as inhibition of cAMP production of Glucagon peptide ([2]; 100 nM test compound) [pmol/ml/μg prt] | Human Glucagon receptor antagonistic activity shown as inhibition of cAMP production of Glucagon peptide ([2]; 1 μM test compound) [pmol/ml/μg prt] | Human Glucagon receptor antagonistic activity shown as inhibition of cAMP production of Glucagon peptide ([2]; 10 μM test compound) [pmol/ml/μg prt] | % degradation of peptidomimetics in 24 h when incubated with DPP-IV enzyme [3] [%] | half-life at 2 μM [3] [h] | % degradation of peptidomimetics in 24 h when incubated with human plasma [4] [%] | half-life at 2 μM [4] [h] | half-life (t1/2) when incubated with simulated gastric fluid [5] | % degradation of peptidomimetics in 24 h when incubated with simulated gastric fluid [5] [%] | half-life (t1/2) when incubated with simulated intestinal fluid [6] | % degradation of peptidomimetics in 24 h when incubated with simulated intestinal fluid [6] [%] | % degradation of peptidomimetics in 24 h when incubated with liver microsomes [7] [%] | half-life at 2 μM [7] [h] | further results
1 | CCc1cc(OC)ccc1-c1ccc(CC(NC(=O)[C@H](CC(=O)O)NC(=O)[C@H](CO)NC(=O)[C@@H](NC(=O)[C@H](Cc2ccccc2)NC(=O)[C@@H](NC(=O)CNC(=O)[C@H](CCC(N)=O)NC(=O)[C@H](CO)NC(=O)[C@@H](N)Cc2c[nH]cn2)[C@@H](C)O)[C@@H](C)O)C(=O)NC(CCCc2ccc(C(F)(F)F)cc2F)C(N)=O)cc1 (some centres unmarked) [compound 49] (H-HSQGTFTSD[ξBip(2'-Et-4'-OMe)][X1]-NH2) | 16.1 ± 0.22 | 22.1 ± 0.26 | 36.0 ± 0.36 | 10 ± 0.03 | 8 ± 0.03 | 6 ± 0.22 | 2 ± 0.13 | 0 | 75 | 9 | 77 | 8 | (8) h | 14 | (6) h | 45 | 81 | 1 | 
2 | CCc1cc(OC)ccc1-c1ccc(CC(C(=O)N(C)C(CCCc2ccccc2)C(N)=O)N(C)C(=O)[C@H](CC(=O)O)NC(=O)[C@H](CO)NC(=O)[C@@H](NC(=O)C(C)(Cc2ccccc2F)NC(=O)[C@@H](NC(=O)CNC(=O)C(CCC#N)NC(=O)C(C)(C)NC(=O)[C@@H](N)Cc2c[nH]cn2)[C@H](C)O)[C@H](C)O)cc1 (single isomer, unassigned) [compound 142] | 12.9 ± 0.14 | 15.8 ± 0.13 | 29.9 ± 0.15 | 10 ± 0.03 | 8 ± 0.03 | 6 ± 0.22 | 2 ± 0.13 | 0 | 77 | 9 | 80 | 8 | (8) h | 13 | (6) h | 50 | 82 | 1 | 
3 | CCc1cc(OC)ccc1-c1ccc(CC(NC(=O)[C@H](CC(=O)O)NC(=O)[C@H](CO)NC(=O)[C@@H](NC(=O)[C@H](Cc2ccccc2)NC(=O)[C@@H](NC(=O)CNC(=O)[C@H](CCC(N)=O)NC(=O)[C@H](CO)NC(=O)[C@@H](N)Cc2c[nH]cn2)[C@@H](C)O)[C@@H](C)O)C(=O)NC(CCCc2ccccc2Cl)C(N)=O)cc1 (single isomer, unassigned) [compound 50] | 15.4 ± 0.14 | 21.2 ± 0.18 | 35.6 ± 0.17 |  |  |  |  |  | 77 | 9 | 80 | 8 | (8) h | 13 | (6) h | 50 | 82 | 1 | Human GLP-1 R activity (cAMP release), % activity with respect to control ([8]; 1 nM test compound): 60 ± 0.12%; Human GLP-1 R activity (cAMP release), % activity with respect to control ([8]; 10 nM test compound): 92 ± 0.15%; Human GLP-1 R activity (cAMP release), % activity with respect to control ([8]; 100 nM test compound): 98 ± 0.18%; Human GLP-1 R activity (cAMP release), % activity with respect to control ([8]; 1 μM test compound): 99 ± 0.03%; Human GLP-1 R activity (cAMP release), % activity with respect to control ([8]; 10 μM test compound): 99 ± 0.09%
4 | CCc1cc(OC)ccc1-c1ccc(CC(NC(=O)[C@H](CC(=O)O)NC(=O)[C@H](CO)NC(=O)[C@@H](NC(=O)[C@H](Cc2ccccc2)NC(=O)[C@@H](NC(=O)CNC(=O)C(CCC#N)NC(=O)C(C)(C)NC(=O)[C@@H](N)Cc2c[nH]cn2)[C@@H](C)O)[C@@H](C)O)C(=O)NC(CCCc2cccc(Cl)c2)C(N)=O)cc1 (single isomer, unassigned) [compound 31] | 16.8 ± 0.20 | 22.7 ± 0.29 | 36.6 ± 0.31 | 6 ± 0.02 | 5 ± 0.03 | 2 ± 0.61 | 0 | 0 | 76 |  | 78 |  |  | 100 |  | 100 | 100 | 0.5 | half-life (t1/2) when incubated with human plasma [4]: (9) h; half-life at 2 μM ([5]; read-out: half-life (t1/2) when incubated with simulated gastric fluid): 0.5 h; half-life at 2 μM ([6]; read-out: half-life (t1/2) when incubated with simulated intestinal fluid): 0.5 h
5 | CCc1cc(OC)ccc1-c1ccc(CC(NC(=O)[C@H](CC(=O)O)NC(=O)[C@H](CO)NC(=O)[C@@H](NC(=O)C(C)(Cc2ccccc2F)NC(=O)[C@@H](NC(=O)CNC(=O)C(CCC#N)NC(=O)C(C)(C)NC(=O)[C@@H](N)Cc2c[nH]cn2)[C@H](C)O)[C@H](C)O)C(=O)N(C)C(CCCc2ccccc2F)C(N)=O)cc1 (single isomer, unassigned) [compound 132] | 13.1 ± 0.11 | 14.9 ± 0.17 | 28.8 ± 0.44 | 15 ± 0.11 | 12 ± 0.13 | 8 ± 0.09 | 4 ± 0.01 | 2 ± 0.08 | 75 | 9 | 77 | 8 | (8) h | 14 | (6) h | 45 | 81 | 1 | 
